# According to PubChem BioAssay (NCI):
#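 Briefly, cells in 96-well plates were exposed to five compound concentrations for 48 h, and endpoints were estimated by linear interpolation. TGI is the concentration that stops growth completely.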
# Experiments:
# Assay in all cases: DTP human tumour cell line panel, 48 h
# LOX IMVI melanoma = system: LOX IMVI melanoma
# SW-620 colon = system: SW-620 colon
# SK-MEL-28 melanoma = system: SK-MEL-28 melanoma
# HCT-116 colon = system: HCT-116 colon
# NCI-H226 lung = system: NCI-H226 lung
# NCI-H522 lung = system: NCI-H522 lung
# OVCAR-5 ovarian = system: OVCAR-5 ovarian
# SN12C renal = system: SN12C renal
# 786-0 renal = system: 786-0 renal
# HCC-2998 colon = system: HCC-2998 colon
# PC-3 prostate = system: PC-3 prostate
# RXF 393 renal = system: RXF 393 renal
# HS 578T breast = system: HS 578T breast
# SK-OV-3 ovarian = system: SK-OV-3 ovarian
# A549 NSCLC = system: A549 NSCLC
# MCF7 breast = system: MCF7 breast
# IGROV1 ovarian = system: IGROV1 ovarian
# SNB-75 CNS = system: SNB-75 CNS
# MDA-N = system: MDA-N
# SF-295 CNS = system: SF-295 CNS
# UACC-257 melanoma = system: UACC-257 melanoma
# CAKI-1 renal = system: CAKI-1 renal
# BT-549 breast = system: BT-549 breast
# COLO 205 colon = system: COLO 205 colon
# MOLT-4 leukemia = system: MOLT-4 leukemia
# OVCAR-8 ovarian = system: OVCAR-8 ovarian
# HOP-62 NSCLC = system: HOP-62 NSCLC
# T-47D breast = system: T-47D breast
# MDA-MB-231 breast = system: MDA-MB-231 breast
# UO-31 renal = system: UO-31 renal
# HCT-15 colon = system: HCT-15 colon
# OVCAR-3 ovarian = system: OVCAR-3 ovarian
# HOP-92 NSCLC = system: HOP-92 NSCLC
# MALME-3M melanoma = system: MALME-3M melanoma
# SK-MEL-2 melanoma = system: SK-MEL-2 melanoma
# A498 renal = system: A498 renal
# KM12 colon = system: KM12 colon
# DU-145 prostate = system: DU-145 prostate
# UACC-62 melanoma = system: UACC-62 melanoma
# NCI/ADR-RES ovarian = system: NCI/ADR-RES ovarian
# OVCAR-4 ovarian = system: OVCAR-4 ovarian
# EKVX NSCLC = system: EKVX NSCLC
# MDA-MB-435 = system: MDA-MB-435
# HL-60(TB) leukemia = system: HL-60(TB) leukemia
# SR leukemia = system: SR leukemia
# TK-10 renal = system: TK-10 renal
# U251 CNS = system: U251 CNS
# NCI-H460 lung = system: NCI-H460 lung
# SK-MEL-5 melanoma = system: SK-MEL-5 melanoma
# SF-539 CNS = system: SF-539 CNS
# SNB-19 CNS = system: SNB-19 CNS
# NCI-H23 lung = system: NCI-H23 lung
# HT29 colon = system: HT29 colon
# RPMI-8226 leukemia = system: RPMI-8226 leukemia
# SF-268 CNS = system: SF-268 CNS
# ACHN renal = system: ACHN renal
# M14 melanoma = system: M14 melanoma
# CCRF-CEM leukemia = system: CCRF-CEM leukemia
# K-562 leukemia = system: K-562 leukemia
# DMS 273 small cell lung = system: DMS 273 small cell lung
# LXFL 529 NSCLC = system: LXFL 529 NSCLC
# SNB-78 CNS = system: SNB-78 CNS
# M19-MEL melanoma = system: M19-MEL melanoma
# DMS 114 small cell lung = system: DMS 114 small cell lung
# DLD-1 colon = system: DLD-1 colon
smiles,measurement,setting,value
O=C(c1ccccc1)c1ccc2c(c1)nc1n2C(c2c(Cl)cccc2Cl)SC1 (stereo not given),TGI,LOX IMVI melanoma,> 100 µM
same,TGI,SW-620 colon,> 100 µM
same,TGI,SK-MEL-28 melanoma,> 100 µM
same,TGI,HCT-116 colon,> 100 µM
same,TGI,NCI-H226 lung,> 100 µM
same,TGI,NCI-H522 lung,> 100 µM
same,TGI,OVCAR-5 ovarian,> 100 µM
same,TGI,SN12C renal,> 100 µM
same,TGI,786-0 renal,> 100 µM
same,TGI,HCC-2998 colon,> 100 µM
same,TGI,PC-3 prostate,> 100 µM
same,TGI,RXF 393 renal,> 100 µM
same,TGI,HS 578T breast,> 100 µM
same,TGI,SK-OV-3 ovarian,> 100 µM
same,TGI,A549 NSCLC,> 100 µM
same,TGI,MCF7 breast,> 100 µM
same,TGI,IGROV1 ovarian,> 100 µM
same,TGI,SNB-75 CNS,> 100 µM
same,TGI,MDA-N,> 100 µM
same,TGI,SF-295 CNS,> 100 µM
same,TGI,UACC-257 melanoma,> 100 µM
same,TGI,CAKI-1 renal,> 100 µM
same,TGI,BT-549 breast,> 100 µM
same,TGI,COLO 205 colon,> 100 µM
same,TGI,MOLT-4 leukemia,> 100 µM
same,TGI,OVCAR-8 ovarian,> 100 µM
same,TGI,HOP-62 NSCLC,> 100 µM
same,TGI,T-47D breast,> 100 µM
same,TGI,MDA-MB-231 breast,> 100 µM
same,TGI,UO-31 renal,> 100 µM
same,TGI,HCT-15 colon,> 100 µM
same,TGI,OVCAR-3 ovarian,> 100 µM
same,TGI,HOP-92 NSCLC,> 100 µM
same,TGI,MALME-3M melanoma,> 100 µM
same,TGI,SK-MEL-2 melanoma,> 100 µM
same,TGI,A498 renal,> 100 µM
same,TGI,KM12 colon,> 100 µM
same,TGI,DU-145 prostate,> 100 µM
same,TGI,UACC-62 melanoma,> 100 µM
same,TGI,NCI/ADR-RES ovarian,> 100 µM
same,TGI,OVCAR-4 ovarian,> 100 µM
same,TGI,EKVX NSCLC,> 100 µM
same,TGI,MDA-MB-435,> 100 µM
same,TGI,HL-60(TB) leukemia,> 100 µM
same,TGI,SR leukemia,> 100 µM
same,TGI,TK-10 renal,> 100 µM
same,TGI,U251 CNS,> 100 µM
same,TGI,NCI-H460 lung,> 100 µM
same,TGI,SK-MEL-5 melanoma,> 100 µM
same,TGI,SF-539 CNS,> 100 µM
same,TGI,SNB-19 CNS,> 100 µM
same,TGI,NCI-H23 lung,> 100 µM
same,TGI,HT29 colon,> 100 µM
same,TGI,RPMI-8226 leukemia,> 100 µM
same,TGI,SF-268 CNS,> 100 µM
same,TGI,ACHN renal,> 100 µM
same,TGI,M14 melanoma,> 100 µM
O=C1CSC2(CC(/C=C/c3ccccc3)=NN2c2cccc(S(=O)(=O)O)c2)N1c1nc2ccccc2s1 (stereo not given),TGI,LOX IMVI melanoma,23.7 µM
same,TGI,SW-620 colon,> 100 µM
same,TGI,SK-MEL-28 melanoma,> 100 µM
same,TGI,HCT-116 colon,> 100 µM
same,TGI,NCI-H226 lung,> 100 µM
same,TGI,NCI-H522 lung,37 µM
same,TGI,OVCAR-5 ovarian,56.5 µM
same,TGI,SN12C renal,71.2 µM
same,TGI,786-0 renal,33 µM
same,TGI,HCC-2998 colon,> 100 µM
same,TGI,PC-3 prostate,59.3 µM
same,TGI,RXF 393 renal,51.7 µM
same,TGI,HS 578T breast,> 100 µM
same,TGI,A549 NSCLC,> 100 µM
same,TGI,MCF7 breast,45 µM
same,TGI,IGROV1 ovarian,56.6 µM
same,TGI,SNB-75 CNS,59.2 µM
same,TGI,MDA-N,> 100 µM
same,TGI,UACC-257 melanoma,> 100 µM
same,TGI,CAKI-1 renal,> 100 µM
same,TGI,BT-549 breast,52.8 µM
same,TGI,COLO 205 colon,> 100 µM
same,TGI,MOLT-4 leukemia,91.5 µM
same,TGI,OVCAR-8 ovarian,35.8 µM
same,TGI,T-47D breast,52.5 µM
same,TGI,MDA-MB-231 breast,47.8 µM
same,TGI,CCRF-CEM leukemia,49.5 µM
same,TGI,UO-31 renal,35.7 µM
same,TGI,HCT-15 colon,> 100 µM
same,TGI,HOP-92 NSCLC,77.3 µM
same,TGI,MALME-3M melanoma,> 100 µM
same,TGI,SK-MEL-2 melanoma,49.5 µM
same,TGI,K-562 leukemia,> 100 µM
same,TGI,A498 renal,64.3 µM
same,TGI,KM12 colon,38.3 µM
same,TGI,DU-145 prostate,54.4 µM
same,TGI,UACC-62 melanoma,45.2 µM
same,TGI,NCI/ADR-RES ovarian,> 100 µM
same,TGI,OVCAR-4 ovarian,54.1 µM
same,TGI,EKVX NSCLC,> 100 µM
same,TGI,MDA-MB-435,37.2 µM
same,TGI,HL-60(TB) leukemia,94.6 µM
same,TGI,SR leukemia,61 µM
same,TGI,TK-10 renal,46.9 µM
same,TGI,U251 CNS,42.1 µM
same,TGI,NCI-H460 lung,> 100 µM
same,TGI,SK-MEL-5 melanoma,> 100 µM
same,TGI,SF-539 CNS,> 100 µM
same,TGI,SNB-19 CNS,51.7 µM
same,TGI,NCI-H23 lung,56.7 µM
same,TGI,HT29 colon,> 100 µM
same,TGI,RPMI-8226 leukemia,53.7 µM
same,TGI,ACHN renal,> 100 µM
same,TGI,M14 melanoma,> 100 µM
Cc1c2cc(Cl)ccc2n2c(=O)c3ccccc3[nH]c(=O)c12,TGI,SK-MEL-28 melanoma,> 100 µM
same,TGI,HCT-116 colon,> 100 µM
same,TGI,NCI-H226 lung,> 100 µM
same,TGI,NCI-H522 lung,> 100 µM
same,TGI,786-0 renal,> 100 µM
same,TGI,HCC-2998 colon,> 100 µM
same,TGI,SK-OV-3 ovarian,> 100 µM
same,TGI,DMS 273 small cell lung,> 100 µM
same,TGI,IGROV1 ovarian,> 100 µM
same,TGI,SNB-75 CNS,> 100 µM
same,TGI,CAKI-1 renal,> 100 µM
same,TGI,LXFL 529 NSCLC,> 100 µM
same,TGI,COLO 205 colon,> 100 µM
same,TGI,MOLT-4 leukemia,> 100 µM
same,TGI,HOP-62 NSCLC,> 100 µM
same,TGI,CCRF-CEM leukemia,> 100 µM
same,TGI,UO-31 renal,> 100 µM
same,TGI,HOP-92 NSCLC,> 100 µM
same,TGI,MALME-3M melanoma,> 100 µM
same,TGI,SK-MEL-2 melanoma,> 100 µM
same,TGI,K-562 leukemia,> 100 µM
same,TGI,SNB-78 CNS,> 100 µM
same,TGI,M19-MEL melanoma,> 100 µM
same,TGI,UACC-62 melanoma,> 100 µM
same,TGI,DMS 114 small cell lung,> 100 µM
same,TGI,OVCAR-4 ovarian,> 100 µM
same,TGI,DLD-1 colon,> 100 µM
same,TGI,SR leukemia,> 100 µM
same,TGI,SF-539 CNS,> 100 µM
same,TGI,NCI-H23 lung,> 100 µM
same,TGI,RPMI-8226 leukemia,> 100 µM
same,TGI,SF-268 CNS,> 100 µM
same,TGI,M14 melanoma,> 100 µM
Clc1ccc(-c2ccc(-c3nnc(CCc4nnc(-c5ccc(-c6ccc(Cl)cc6)o5)o4)o3)o2)cc1,TGI,LOX IMVI melanoma,> 100 µM
same,TGI,SW-620 colon,> 100 µM
same,TGI,SK-MEL-28 melanoma,> 100 µM
same,TGI,HCT-116 colon,> 100 µM
same,TGI,NCI-H226 lung,> 100 µM
same,TGI,NCI-H522 lung,> 100 µM
same,TGI,OVCAR-5 ovarian,> 100 µM
same,TGI,SN12C renal,> 100 µM
same,TGI,786-0 renal,> 100 µM
same,TGI,HCC-2998 colon,> 100 µM
same,TGI,PC-3 prostate,> 100 µM
same,TGI,RXF 393 renal,> 56 µM
same,TGI,HS 578T breast,86 µM
same,TGI,SK-OV-3 ovarian,> 90.4 µM
same,TGI,A549 NSCLC,> 100 µM
same,TGI,MCF7 breast,> 100 µM
same,TGI,IGROV1 ovarian,> 100 µM
same,TGI,MDA-N,> 100 µM
same,TGI,SF-295 CNS,> 100 µM
same,TGI,UACC-257 melanoma,> 100 µM
same,TGI,CAKI-1 renal,> 100 µM
same,TGI,BT-549 breast,> 100 µM
same,TGI,COLO 205 colon,> 100 µM
same,TGI,MOLT-4 leukemia,> 45.3 µM
same,TGI,OVCAR-8 ovarian,> 100 µM
same,TGI,HOP-62 NSCLC,> 100 µM
same,TGI,T-47D breast,> 100 µM
same,TGI,MDA-MB-231 breast,> 100 µM
same,TGI,CCRF-CEM leukemia,16.9 µM
same,TGI,UO-31 renal,> 100 µM
same,TGI,HCT-15 colon,> 100 µM
same,TGI,OVCAR-3 ovarian,> 100 µM
same,TGI,HOP-92 NSCLC,> 64.1 µM
same,TGI,SK-MEL-2 melanoma,> 100 µM
same,TGI,K-562 leukemia,> 61.2 µM
same,TGI,A498 renal,> 92.2 µM
same,TGI,KM12 colon,> 100 µM
same,TGI,DU-145 prostate,> 100 µM
same,TGI,UACC-62 melanoma,> 100 µM
same,TGI,NCI/ADR-RES ovarian,> 100 µM
same,TGI,OVCAR-4 ovarian,> 100 µM
same,TGI,EKVX NSCLC,> 100 µM
same,TGI,MDA-MB-435,> 100 µM
same,TGI,SR leukemia,5.5 µM
same,TGI,TK-10 renal,> 86 µM
same,TGI,U251 CNS,> 100 µM
same,TGI,NCI-H460 lung,> 100 µM
same,TGI,SK-MEL-5 melanoma,> 100 µM
same,TGI,SF-539 CNS,> 100 µM
same,TGI,SNB-19 CNS,> 100 µM
same,TGI,NCI-H23 lung,> 100 µM
same,TGI,HT29 colon,> 100 µM
same,TGI,RPMI-8226 leukemia,> 100 µM
same,TGI,SF-268 CNS,> 100 µM
same,TGI,ACHN renal,> 100 µM
same,TGI,M14 melanoma,> 100 µM
